Assay results as given in patent US20190119284A1, “ErbB Inhibitors and Uses Thereof” (The Regents of the University of California, priority 2016, published 2019).
Values belong to the compound of their own block, whether it stands above or below them.

Key:
[1] = molecular target: JAK1 (Homo sapiens, UniProt P23458); assay: Nanosyn in vitro kinase profiling: JAK1; format: biochemical; conditions: compound at 1 μM
[2] = tested on: mutationally activated EGFR; assay: proliferation assays of EGFR cell lines (FIG. 7C); format: cell-based; conditions: in contrast to lapatinib
[3] = tested on: SK-BR-3 cells; assay: 72 h proliferation of SK-BR-3 cells in the presence or absence of NRG; format: cell-based; conditions: SK-BR-3, 72 h dose response +/- NRG
Protocol: FIGS. 1A-1E. NRG rescues HER2 over-expressing cancer cells from HER2 inhibitors. […] FIG 1B: Same experiment as depicted in FIG. 1A, but with the inhibitor TAK-285. FIG. 1C: The ability of NRG to rescue SK-BR-3 and BT-474 cell proliferation from HER2 inhibitors is dose dependent. Cells were treated with 1 μM of the indicated inhibitor in the presence of varying concentrations of NRG, and proliferation was read out after 72 h (mean±SD, n=3). […] FIG. 1E: Cartoon schematic of the EGFR family kinase domain asymmetric dimer. The C-terminal domain of the ‘activator’ kinase (right) interacts with the N-terminal portion of the ‘receiver’ kinase (left). This interaction stabilizes the active conformation of the receiver kinase identified by the ‘in’ conformation of the receiver kinase's α-C helix and the ordered extension of the activation loop.
FIGS. 5A-5D. […] FIG. 5A: Chemical structure of compound 3 (also referred to herein as compound 178). FIG. 5B: Proliferation curves for compound 3 against the Ba/F3 cell line panel (mean±SD, n=3). […] FIG. 5D: The same assay in FIG. 2A was performed with compound 3 in SK-BR-3 cells.

[4] = molecular target: FAK (Homo sapiens, UniProt Q05397); assay: Nanosyn in vitro kinase profiling: FAK; format: biochemical; conditions: compound at 1 μM
[5] = molecular target: CAMK4 (Homo sapiens, UniProt Q16566); assay: Nanosyn in vitro kinase profiling: CAMK4; format: biochemical; conditions: compound at 1 μM
CAMK4, sequence (Q16566 whole entry, species assumed, the tested form may be a part): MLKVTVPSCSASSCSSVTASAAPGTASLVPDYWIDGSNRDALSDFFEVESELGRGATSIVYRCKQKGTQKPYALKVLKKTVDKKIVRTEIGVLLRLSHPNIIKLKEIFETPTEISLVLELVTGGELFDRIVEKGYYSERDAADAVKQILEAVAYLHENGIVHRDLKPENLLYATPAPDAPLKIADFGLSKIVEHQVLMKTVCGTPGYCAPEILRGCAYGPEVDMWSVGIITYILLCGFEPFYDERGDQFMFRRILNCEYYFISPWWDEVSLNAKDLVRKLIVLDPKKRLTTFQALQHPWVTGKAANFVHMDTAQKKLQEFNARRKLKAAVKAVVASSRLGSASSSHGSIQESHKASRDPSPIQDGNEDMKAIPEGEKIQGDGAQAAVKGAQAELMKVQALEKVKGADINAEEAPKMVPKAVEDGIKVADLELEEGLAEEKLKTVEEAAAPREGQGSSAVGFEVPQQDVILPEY

[6] = molecular target: T1, HER2 kinase domain (Homo sapiens, UniProt P04626); assay: In vitro HER2 Kinase Assay; format: biochemical; conditions: 50 μM ATP
T1 construct: In vitro kinase assays with the HER2 kinase domain (SignalChem) were performed in triplicate; purchased SignalChem
T1 sequence (P04626 720-987 limits assumed): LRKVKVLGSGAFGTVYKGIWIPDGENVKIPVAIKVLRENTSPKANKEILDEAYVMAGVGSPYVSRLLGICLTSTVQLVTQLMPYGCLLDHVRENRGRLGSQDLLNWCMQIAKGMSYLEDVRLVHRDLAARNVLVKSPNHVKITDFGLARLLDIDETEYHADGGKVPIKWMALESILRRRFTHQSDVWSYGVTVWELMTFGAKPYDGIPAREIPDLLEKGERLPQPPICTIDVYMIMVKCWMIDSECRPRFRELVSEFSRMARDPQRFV
Protocol: In vitro HER2 Kinase Assay. In vitro kinase assays with the HER2 kinase domain (SignalChem) were performed in triplicate as follows. To 9 μL of a 2.5× solution of kinase and substrate in reaction buffer was added 3 μL of a 5× DMSO or inhibitor dilution in 10% DMSO:water. The inhibitor/kinase solution was incubated at room temperature for 10 minutes. The kinase assay was initiated by the addition of 3 μL of a 5× solution of ATP, and ran for 15 minutes. The final reaction conditions were 50 mM Tris (pH7.4), 5 mM MnCl2, 0.01% Tween-20, 2 mM DTT, 100 μM E4Y substrate (SignalChem), 15 nM HER2, 2% DMSO, 50 μM ATP, and 1 μCi γ^32P-ATP. After 15 minutes, 3 μL of each reaction was pipetted onto phosphocellulose sheets (P81, Whatman) and allowed to dry. The sheets were then washed 4×5 min with a solution of 0.5% phosphoric acid, dried, and exposed to a phosphor screen overnight. Phosphorimaging was conducted on a Typhoon 9500, image intensities were quantified in ImageQuant 5.2, normalized to the DMSO control and plotted in GraphPad Prism 6.

[7] = molecular target: TRKC (Homo sapiens, UniProt Q16288); assay: Nanosyn in vitro kinase profiling: TRKC; format: biochemical
TRKC, sequence (Q16288 32-839): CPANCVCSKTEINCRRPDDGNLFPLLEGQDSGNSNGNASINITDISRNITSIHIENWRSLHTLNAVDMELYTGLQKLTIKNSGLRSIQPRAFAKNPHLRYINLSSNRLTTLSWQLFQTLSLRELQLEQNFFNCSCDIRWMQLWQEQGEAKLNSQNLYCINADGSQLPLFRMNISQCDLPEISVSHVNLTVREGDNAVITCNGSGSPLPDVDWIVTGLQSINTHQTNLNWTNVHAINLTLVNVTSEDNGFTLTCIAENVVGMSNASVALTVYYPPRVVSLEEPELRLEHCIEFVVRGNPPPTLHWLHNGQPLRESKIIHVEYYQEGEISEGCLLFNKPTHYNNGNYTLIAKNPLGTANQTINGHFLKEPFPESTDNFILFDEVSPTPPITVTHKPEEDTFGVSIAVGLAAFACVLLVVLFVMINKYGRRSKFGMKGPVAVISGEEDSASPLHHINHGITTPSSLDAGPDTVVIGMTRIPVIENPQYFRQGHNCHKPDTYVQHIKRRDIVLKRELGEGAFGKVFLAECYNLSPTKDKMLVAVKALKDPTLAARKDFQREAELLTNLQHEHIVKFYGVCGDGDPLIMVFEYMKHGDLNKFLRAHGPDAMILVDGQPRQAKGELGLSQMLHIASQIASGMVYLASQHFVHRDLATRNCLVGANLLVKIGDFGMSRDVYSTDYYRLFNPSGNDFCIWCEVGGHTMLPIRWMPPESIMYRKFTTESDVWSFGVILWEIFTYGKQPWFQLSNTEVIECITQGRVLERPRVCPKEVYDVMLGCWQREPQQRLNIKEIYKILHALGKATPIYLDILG
Protocol: (§1) This was confirmed by in vitro profiling against a panel of kinases, with compound 2 only showing potent inhibition of EGFR and Ab1 (Table 2).
(§2) In vitro Kinome Screen. In vitro profiling of compound 2 at 100 nM was conducted by Nanosyn.

[8] = molecular target: ALK (Homo sapiens, UniProt Q9UM73); assay: Nanosyn in vitro kinase profiling: ALK; format: biochemical
ALK, sequence (Q9UM73 19-1620, species assumed): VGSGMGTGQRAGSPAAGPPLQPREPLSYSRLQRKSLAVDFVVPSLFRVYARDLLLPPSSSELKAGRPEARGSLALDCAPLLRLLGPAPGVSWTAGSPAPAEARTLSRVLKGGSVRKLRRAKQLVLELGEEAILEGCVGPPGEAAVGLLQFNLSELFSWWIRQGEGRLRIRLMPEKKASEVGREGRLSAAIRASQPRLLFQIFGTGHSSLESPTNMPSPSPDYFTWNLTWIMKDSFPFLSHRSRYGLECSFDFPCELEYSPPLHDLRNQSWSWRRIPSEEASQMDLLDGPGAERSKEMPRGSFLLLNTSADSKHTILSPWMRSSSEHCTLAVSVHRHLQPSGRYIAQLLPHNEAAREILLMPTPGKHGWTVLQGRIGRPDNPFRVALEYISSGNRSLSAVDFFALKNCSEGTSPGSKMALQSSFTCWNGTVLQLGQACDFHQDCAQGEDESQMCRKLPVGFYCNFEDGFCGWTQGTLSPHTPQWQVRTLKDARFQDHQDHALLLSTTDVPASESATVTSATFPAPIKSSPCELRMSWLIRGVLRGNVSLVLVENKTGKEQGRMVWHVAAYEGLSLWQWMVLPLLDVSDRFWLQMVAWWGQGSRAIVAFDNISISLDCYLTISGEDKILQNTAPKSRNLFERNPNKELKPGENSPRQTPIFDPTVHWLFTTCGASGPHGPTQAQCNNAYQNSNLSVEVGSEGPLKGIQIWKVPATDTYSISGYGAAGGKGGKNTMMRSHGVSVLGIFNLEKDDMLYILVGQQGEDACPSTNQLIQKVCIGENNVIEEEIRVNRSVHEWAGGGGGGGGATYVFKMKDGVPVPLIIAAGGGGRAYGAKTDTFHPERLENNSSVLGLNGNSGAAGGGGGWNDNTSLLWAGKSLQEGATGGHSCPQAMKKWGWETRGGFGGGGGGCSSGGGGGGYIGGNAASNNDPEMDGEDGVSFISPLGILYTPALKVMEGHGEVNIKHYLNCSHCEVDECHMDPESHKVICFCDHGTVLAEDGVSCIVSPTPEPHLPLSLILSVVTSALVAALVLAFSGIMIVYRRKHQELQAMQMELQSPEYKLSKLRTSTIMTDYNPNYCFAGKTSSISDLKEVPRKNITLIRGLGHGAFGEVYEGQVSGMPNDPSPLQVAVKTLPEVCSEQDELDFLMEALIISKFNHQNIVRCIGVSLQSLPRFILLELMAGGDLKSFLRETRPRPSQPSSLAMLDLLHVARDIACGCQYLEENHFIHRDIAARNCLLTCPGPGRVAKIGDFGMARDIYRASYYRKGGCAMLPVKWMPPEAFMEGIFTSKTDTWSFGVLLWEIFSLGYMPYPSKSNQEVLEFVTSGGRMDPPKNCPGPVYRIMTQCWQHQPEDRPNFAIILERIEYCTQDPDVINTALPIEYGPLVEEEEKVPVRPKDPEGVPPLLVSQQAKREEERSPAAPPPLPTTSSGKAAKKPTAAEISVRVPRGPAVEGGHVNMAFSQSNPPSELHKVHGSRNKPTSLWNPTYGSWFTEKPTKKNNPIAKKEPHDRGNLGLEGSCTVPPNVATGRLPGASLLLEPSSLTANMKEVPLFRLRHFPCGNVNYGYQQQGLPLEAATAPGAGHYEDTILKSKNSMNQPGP
Protocol: as §1, §2

[9] = molecular target: P70S6K1 (Homo sapiens, UniProt P23443); assay: Nanosyn in vitro kinase profiling: P70S6K1; format: biochemical
P70S6K1, sequence (P23443 whole entry, species assumed): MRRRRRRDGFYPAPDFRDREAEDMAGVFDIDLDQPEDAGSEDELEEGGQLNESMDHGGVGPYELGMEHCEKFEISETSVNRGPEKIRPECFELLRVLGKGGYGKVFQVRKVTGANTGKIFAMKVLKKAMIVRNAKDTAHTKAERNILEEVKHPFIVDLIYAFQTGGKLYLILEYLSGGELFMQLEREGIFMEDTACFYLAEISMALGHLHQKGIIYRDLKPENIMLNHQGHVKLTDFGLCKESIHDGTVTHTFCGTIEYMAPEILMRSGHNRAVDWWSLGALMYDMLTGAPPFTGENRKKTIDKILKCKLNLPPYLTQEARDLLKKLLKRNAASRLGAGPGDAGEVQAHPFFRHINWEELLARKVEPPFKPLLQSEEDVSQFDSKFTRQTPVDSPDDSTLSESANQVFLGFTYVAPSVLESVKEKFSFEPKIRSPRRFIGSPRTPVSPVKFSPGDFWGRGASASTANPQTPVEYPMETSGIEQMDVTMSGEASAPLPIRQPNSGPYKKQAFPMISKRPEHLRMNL
Protocol: as §1, §2

[10] = tested on: HER2/HER3 signaling in SK-BR-3 cells; assay: HER2/HER3 signaling in SK-BR-3 cells (immunoblot); format: cell-based; conditions: serum-starved SK-BR-3 cells; drug added 15 min before NRG
Protocol: Immunoblotting. Cells were grown in 6 well plates and treated according to the indicated conditions at which point the media was aspirated, cells were washed with 1 mL of cold PBS, which was then aspirated and the plates were frozen at −80° C. The frozen cells were thawed on the plates in a buffer containing 50 mM Tris pH 7.5, 150 mM NaCl, 1 mM EDTA, and 1% Triton X-100 supplemented with 1× phosphatase (PhoSTOP, Roche) and 1× protease (complete-mini tablets, Roche) inhibitors. Lysates were scraped, transferred to Eppendorf tubes, and cleared by centrifugation at 20,000×g for 20 min at 4° C. The clarified lysates were transferred to chilled, clean tubes, and normalized for protein concentration by Bradford (Bio-Rad). […] Primary antibodies were detected using IRDye secondary antibodies (Li-Cor) according to the manufacturer's recommendations and scanned on an Odyssey imager (Li-Cor).

[11] = tested on: HER2/HER3 signaling in CW-2 cells (HER3 E928G); assay: HER2/HER3 signaling in CW-2 cells +/- NRG, 1 h; format: cell-based; conditions: CW-2, dose response
[12] = tested on: 2YFTM/HER3wt and 2YFTM/3TM Ba/F3 cells; assay: Ba/F3 proliferation assay, HER2 gatekeeper mutant lines; format: cell-based; conditions: Ba/F3 lines with methionine gatekeeper mutation in HER2
Protocol: Proliferation Assays. […] For all normalized assays, proliferation was normalized to the DMSO control condition. All graphs were plotted in GraphPad Prism 6 and fit with a non-linear regression of the log(inhibitor) vs response with a variable slope where shown. All graphs are averages (+/−standard deviation) of biological triplicates each performed in technical triplicate unless otherwise noted. If only one biological replicate was performed standard deviations were derived from the technical replicates.

JAK1, sequence (P23458 whole entry, species assumed): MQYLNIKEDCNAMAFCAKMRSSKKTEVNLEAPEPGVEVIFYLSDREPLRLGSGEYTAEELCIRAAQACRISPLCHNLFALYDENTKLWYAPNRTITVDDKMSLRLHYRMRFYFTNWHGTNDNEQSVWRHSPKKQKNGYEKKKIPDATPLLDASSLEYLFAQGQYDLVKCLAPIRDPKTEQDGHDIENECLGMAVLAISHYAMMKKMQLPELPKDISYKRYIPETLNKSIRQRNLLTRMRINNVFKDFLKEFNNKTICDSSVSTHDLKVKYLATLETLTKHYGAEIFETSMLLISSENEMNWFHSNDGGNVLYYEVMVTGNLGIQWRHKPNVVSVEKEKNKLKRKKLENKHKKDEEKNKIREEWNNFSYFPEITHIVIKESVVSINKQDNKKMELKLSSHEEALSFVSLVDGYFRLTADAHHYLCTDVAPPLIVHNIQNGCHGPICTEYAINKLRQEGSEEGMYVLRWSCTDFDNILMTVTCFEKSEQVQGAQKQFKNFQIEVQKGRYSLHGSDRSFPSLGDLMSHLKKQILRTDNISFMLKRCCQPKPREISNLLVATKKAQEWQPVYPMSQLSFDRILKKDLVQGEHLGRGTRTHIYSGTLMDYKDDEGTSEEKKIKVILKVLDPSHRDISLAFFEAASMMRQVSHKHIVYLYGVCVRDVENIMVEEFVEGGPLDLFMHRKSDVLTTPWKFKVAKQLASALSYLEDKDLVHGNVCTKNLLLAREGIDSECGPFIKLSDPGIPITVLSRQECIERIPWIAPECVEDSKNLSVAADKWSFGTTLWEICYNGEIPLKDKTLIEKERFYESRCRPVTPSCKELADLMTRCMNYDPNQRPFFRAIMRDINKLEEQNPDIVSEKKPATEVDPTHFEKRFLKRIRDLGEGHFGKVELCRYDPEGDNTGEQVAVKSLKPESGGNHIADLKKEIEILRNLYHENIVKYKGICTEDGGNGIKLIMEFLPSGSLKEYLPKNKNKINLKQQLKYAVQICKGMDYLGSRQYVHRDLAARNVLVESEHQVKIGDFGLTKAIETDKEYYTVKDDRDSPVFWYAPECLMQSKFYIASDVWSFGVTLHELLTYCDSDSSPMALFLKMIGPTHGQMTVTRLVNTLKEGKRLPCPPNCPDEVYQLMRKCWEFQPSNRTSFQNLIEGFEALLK

inhibition at 1 µM [1]: 52%
inhibition at 1 µM [4]: -10%
inhibition at 1 µM [5]: 0%
Compound: COc1ccc(-c2ccoc2)cc1Nc1ncnc2[nH]cc(-c3cc[nH]n3)c12 [compound 3, N-(5-(furan-3-yl)-2-methoxyphenyl)-5-(1H-pyrazol-3-yl)-7H-pyrrolo[2,3-d]pyrimidin-4-amine]
preferential inhibition in proliferation assays [2]: preferential inhibition of the mutationally activated EGFR
sensitivity of proliferation inhibition to NRG [3]: insensitive to the presence of NRG

potency against HER2 in vitro [6]: equipotent to lapatinib
inhibition at 0.1 µM ([7]; compound at 100 nM): 15.7%
inhibition at 1 µM ([7]; compound at 1 μM): 46.9%
inhibition at 0.1 µM ([8]; compound at 100 nM): 6.14%
inhibition at 1 µM ([8]; compound at 1 μM): 19.8%
inhibition at 0.1 µM ([9]; compound at 100 nM): 8.88%
inhibition at 1 µM ([9]; compound at 1 μM): 38.4%
Compound: COc1ccc(-c2ccco2)cc1Nc1ncnc2[nH]nc(-c3ccco3)c12 [compound 2, 3-(furan-2-yl)-N-(5-(furan-2-yl)-2-methoxyphenyl)-1H-pyrazolo[3,4-d]pyrimidin-4-amine]

Compound: CS(=O)(=O)CCNCc1ccc(-c2ccc3ncnc(Nc4ccc(OCc5cccc(F)c5)c(Cl)c4)c3c2)o1 [lapatinib]
concentration sufficient to inhibit the entire RTK signaling pathway [10]: greater than 100 nM
HER2/HER3 signaling +/- NRG [11]: NRG rescues HER2/HER3 signaling
inhibition of proliferation [12]: unable to inhibit the proliferation
